Measured values: US8383168B2, “Antioxidant complex, cosmetic and pharmaceutical compositions containing said complex and use of said complex” (Natura Cosmeticos S.A., priority 2008, dated 2013)

Assays:
Format in all cases: biochemical
[1] = Lipoperoxidation (liposomes + AAPH, xylenol orange); details: for protection against lipoperoxidation: active ingredient alone, 100 μg/ml (0.01%), 3 hours of reaction
Description: The methodologies selected for planning and carrying out the tests for the antioxidant efficacy of the complex of the present invention aimed at reproducing the protective effect of membranes (lipids), DNA and proteins, and were fast screening methodologies, such as: • DPPH: the test is based on the reduction reaction of the diphenyl picryl hydrazyl (DPPH) free radical in ethanolic medium, with the raw materials or substances to be analyzed, wherein the DPPH radical is reduced by said substances, altering the tone and enabling the antioxidant protection to be measured. This is a simple assay, commonly used for screening substances, since it measures one of the main mechanisms of antioxidant action—proton donation for stabilization of the DPPH radical. • Lipoperoxidation: in this test, phosphatidylcholine liposomes, which structure resembles the cell membrane since phosphatidylcholine is one of the lipid components of cell membranes, are incubated with the AAPH radical, which is capable of promoting the oxidation of these membranes, forming lipid hydroperoxides. These hydroperoxides promote the oxidation of Fe^2+ to Fe^3+, which reacts with xylenol orange, forming a yellowish compound. The active ingredients incubated with the liposomes decrease the membrane oxidation, consequently decreasing the reaction with xylenol orange and the formation of color. This test provides a result for the % protection against lipoperoxidation, and is closer to the physiological situation, since it mimics the attack to cell membranes. • Protein Oxidation: this experiment uses BSA (bovine serum albumine) as a substrate and a hydroxyl radical generating system (Fenton reaction: H2O2+ iron), which can generate hydroperoxides in the presence of the protein, due to the oxidation of the amino acid side chain. These hydroperoxides promote the oxidation of Fe2+ to Fe3+, which reacts with xylenol orange, forming a yellowish compound. […]

[2] = DPPH free radical neutralization; details: amount required to neutralize 50% of DPPH radicals
Description: This methodology is used to assess the IC-50 value, i.e., the amount of active ingredient required to neutralize 50% of the radicals formed in the reaction medium.
This assay is used to assess the active ingredient's ability to decrease the formation of free radicals. A specific radical (DPPH) produces a purple coloring in ethanolic solution. Antioxidant active ingredients capable of donating protons (H^+) decrease the formation of radicals, consequently decreasing the purple coloring.

[3] = ORAC hydrophilic and lipophylic method; details: value printed for comparison with the samples
Description: The system comprises a generating substance of free radical, the AAPH (2,2′-azobis (2-amidinopropane)dihydrochloride) and a fluorescent marker, fluorescein. The antioxidant substance presence in the reaction medium inhibits the decline of the induced fluorescence by the free radical.
The final value is calculated by the regression equation between the sample concentration and the area under the decline curve of fluorescence (AUC). Being expressed the result in micromoles equivalent of Trolox®/g of the sample. AUC=1+f1/f0+f2/f0++f3/f0+ . . . +fn/f0 • f0: initial fluorescence t=0 minutes • fn: fluorescence in each sample in t=n minutes
Hexane (1 mg/mL) was added in the individual samples, the samples were agitated during 3 minutes in vortex and centrifuged during two minutes in 700 g. The supernatant was removed, evaporated under nitrogen flow and analyzed as lipophylic portion. The soil body was analyzed as hydrophilic fraction.
The latter was solubilized in acetone:water (50% v/v), mixed in the ratio indicated for each one of the mixtures and appropriately diluted in 75 nM phosphate buffer pH 7.0. […] The reading was made each minute for one hour with wave length of excitement 485/20 nm and emission 528/20 nm (reading of plates—Multi Detection microplate reader SynergyBIOTEK). […]

## CC(C)=CCC/C(C)=C/C=C/C(C)=C/C=C/C(C)=C/C=C/C=C(C)/C=C/C=C(C)/C=C/C=C(\C)CCC=C(C)C [Lycopene]
[1]
  protection against lipoperoxidation: 25.30%
[2]
  IC-50 (mg/ml): 0.208 mg/mL
  IC-50 (μg/ml): 208 µg/mL

## Cc1c(C)c2c(c(C)c1O)CC[C@@](C)(CCC[C@H](C)CCC[C@H](C)CCCC(C)C)O2 [Tocopherol, alpha-tocopherol]
[1]
  protection against lipoperoxidation: 95.53%
[1]; lipoperoxidation, between 60 and 70% protection, mixture 10+10+10 μg/ml
  concentration of the active ingredient in isolation required for protection similar to the mixture, relative to its concentration in the mixture: at least 5 times higher
[2]
  IC-50 (mg/ml): 0.019 mg/mL
  IC-50 (μg/ml): 19 µg/mL

## Cc1c(C)c2c(c(C)c1O)CCC(C)(C(=O)O)O2 (centres unmarked) [Trolox®]
[3]
  antioxidant activity of comparator: 400 µmol/g
